Experimental data taken from US8415469B2, “Compounds and methods for kinase modulation, and indications therefor” (Plexxikon Inc., priority 2005, dated 2013).

Legend:
Assay type in all cases: biochemical
MAPKAPK2 = biological target: T1, MAPKAPK2 (Homo sapiens, UniProt P49137); assay: Z'-Lyte FRET kinase assay (Invitrogen), MAPKAPK2; settings: read-out: IC50, activity toward kinase MAPKAPK2
T1 construct: purchased Invitrogen (assay run by Invitrogen)
Description: The effect of potential modulators of kinase activity can be measured in a variety of different assays known in the art. For example, direct radiometric, indirect FRET or AlphaScreen assays may be used to assess the level of phosphorylation of a substrate in the presence of test compounds in order to determine the inhibitory affect of the compound on the kinase. Invitrogen (Carlsbad, Calif.) uses a FRET based assay for Btk, EGFR, EphB2, Flt3, lrak4, Kdr, MAP2K1, MAPKAPK2, PDGFRB, PKC theta, Stk6 and Yes. For these assays, compounds of the invention were screened by Invitrogen using Z′-Lyte™ kinase assay.
Briefly, the Invitrogen kinase assay involves use of a specific peptide substrate optimized for each kinase, containing a fluorophore at each end that make up the FRET pair. The peptide sensitivity to proteolytic cleavage depends on phosphorylation of the peptide. Non-phosphorylated peptide is cleaved by a protease while peptide phosphorylated by the kinase is not cleaved. Cleavage of the peptide disrupts the FRET between the donor (coumarin) and acceptor (fluorescein) fluorophores, resulting in an increase in the ratio of donor emission to acceptor emission. The emission ratio of coumarin to fluorescein is used to assess the reaction progress. The extent of phosphorylation is determined from the emission ratio, which is low when the kinase is active (phosphorylated peptide is not cleaved, FRET pair connected) or higher for inhibited kinase (non-phosphorylated peptide is cleaved, FRET pair separated). Thus, the assay involves a kinase reaction in the presence of varying concentrations of a given compound, a development reaction with site specific protease, and detection of the fluorescent emission ratio of coumarin and fluorscein. […] Reaction conditions for each kinase are determined to provide optimal reaction times, incubation temperature, kinase and ATP concentrations. Test samples are made up in 1× kinase buffer (50 mM HEPES pH 7.5, 50 mM MgCl2, 5 mM EGTA, 0.05% BRIJ-35) and compound at desired concentration prepared in DMSO such that the final DMSO is 1%. […] Typically, assay plates are prepared to 10 μl final volume per sample, adding 2.5 μl of compound at 4× the desired concentration in 4% DMSO (serial dilution of compound provides concentration curve), 5 μl of the desired kinase mixed with Z′-LYTE™ peptide substrate (2× in 2× kinase buffer, final peptide at 2 μM), and 2.5 μl of 4×ATP solution. All kinase except for MAP2K1 were at 10 μM ATP in the kinase reaction, while MAP2K1 was at 100 μM. Samples are mixed and the kinase reaction is incubated 1 hour at room temperature, after which 5 μl of development solution is added and mixed. After incubation for another 1 hour at room temperature, 5 μl of stop reagent is added to each sample and mixed. The fluorescence signals are measured to determine the emission ratio.

B-Raf V600E = biological target: T2, B-Raf V600E (Homo sapiens, UniProt P15056, V600E); assay: AlphaScreen kinase assay, B-Raf V600E; settings: read-out: IC50, activity toward kinase B-Raf V600E
T2 construct: P4254. pFastBacBD-CDC37 BRAF D437-K722-X, V600E; His6 with pFastBac HT leader (TEV site) (N); made in house; host or cells: Sf9 (baculovirus; chaperone CDC37 co-expressed)
T2 sequence (P15056 with tags, fused parts or gaps V600E): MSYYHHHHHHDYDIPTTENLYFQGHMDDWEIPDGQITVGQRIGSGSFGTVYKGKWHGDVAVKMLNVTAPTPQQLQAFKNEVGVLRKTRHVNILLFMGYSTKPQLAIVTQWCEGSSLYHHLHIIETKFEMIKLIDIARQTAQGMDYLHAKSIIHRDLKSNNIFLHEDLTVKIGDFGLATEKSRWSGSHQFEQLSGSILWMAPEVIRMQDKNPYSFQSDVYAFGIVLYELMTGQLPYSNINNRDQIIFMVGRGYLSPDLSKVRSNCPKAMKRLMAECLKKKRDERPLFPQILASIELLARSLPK

Ret = biological target: T3, Ret (Homo sapiens, UniProt P07949); assay: AlphaScreen kinase assay, Ret; settings: read-out: IC50, activity toward kinase Ret
T3 construct: P1378.pET-SF BI-PTP RET H661-R1012 HIS; made in house
T3 sequence (P07949 with tags, fused parts or gaps): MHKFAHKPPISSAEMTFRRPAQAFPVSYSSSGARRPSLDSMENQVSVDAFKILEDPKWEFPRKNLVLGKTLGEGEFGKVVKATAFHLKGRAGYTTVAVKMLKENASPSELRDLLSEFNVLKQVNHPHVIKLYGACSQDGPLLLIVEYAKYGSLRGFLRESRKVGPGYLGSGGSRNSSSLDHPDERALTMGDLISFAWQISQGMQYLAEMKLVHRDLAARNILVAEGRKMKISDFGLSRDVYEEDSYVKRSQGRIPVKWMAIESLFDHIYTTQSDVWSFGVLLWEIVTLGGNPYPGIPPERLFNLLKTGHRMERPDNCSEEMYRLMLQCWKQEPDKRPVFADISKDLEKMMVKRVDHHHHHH

Jnk3 = biological target: T4, Jnk3 (Homo sapiens, UniProt P53779); assay: AlphaScreen kinase assay, Jnk3; settings: read-out: IC50, activity toward kinase Jnk3
T4 construct: purchased Upstate Biotechnology
T4 sequence (P53779 whole entry): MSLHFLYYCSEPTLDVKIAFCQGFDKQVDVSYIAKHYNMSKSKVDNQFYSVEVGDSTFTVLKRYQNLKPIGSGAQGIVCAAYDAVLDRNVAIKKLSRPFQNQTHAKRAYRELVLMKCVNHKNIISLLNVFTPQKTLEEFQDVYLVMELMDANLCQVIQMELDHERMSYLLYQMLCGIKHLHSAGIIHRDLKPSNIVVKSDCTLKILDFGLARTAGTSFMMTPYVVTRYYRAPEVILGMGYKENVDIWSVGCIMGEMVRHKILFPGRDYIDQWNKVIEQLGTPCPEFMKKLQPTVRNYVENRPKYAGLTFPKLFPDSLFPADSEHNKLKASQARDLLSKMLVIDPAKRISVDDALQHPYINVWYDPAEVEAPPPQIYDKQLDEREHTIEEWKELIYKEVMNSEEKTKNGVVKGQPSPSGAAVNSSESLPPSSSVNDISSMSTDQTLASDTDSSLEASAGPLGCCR

Kdr = biological target: T5, Kdr (Homo sapiens, UniProt P35968); assay: Z'-Lyte FRET kinase assay (Invitrogen), Kdr; settings: read-out: IC50, activity toward kinase Kdr
T5 construct: purchased Invitrogen (assay run by Invitrogen)
T5 sequence (P35968 20-1356): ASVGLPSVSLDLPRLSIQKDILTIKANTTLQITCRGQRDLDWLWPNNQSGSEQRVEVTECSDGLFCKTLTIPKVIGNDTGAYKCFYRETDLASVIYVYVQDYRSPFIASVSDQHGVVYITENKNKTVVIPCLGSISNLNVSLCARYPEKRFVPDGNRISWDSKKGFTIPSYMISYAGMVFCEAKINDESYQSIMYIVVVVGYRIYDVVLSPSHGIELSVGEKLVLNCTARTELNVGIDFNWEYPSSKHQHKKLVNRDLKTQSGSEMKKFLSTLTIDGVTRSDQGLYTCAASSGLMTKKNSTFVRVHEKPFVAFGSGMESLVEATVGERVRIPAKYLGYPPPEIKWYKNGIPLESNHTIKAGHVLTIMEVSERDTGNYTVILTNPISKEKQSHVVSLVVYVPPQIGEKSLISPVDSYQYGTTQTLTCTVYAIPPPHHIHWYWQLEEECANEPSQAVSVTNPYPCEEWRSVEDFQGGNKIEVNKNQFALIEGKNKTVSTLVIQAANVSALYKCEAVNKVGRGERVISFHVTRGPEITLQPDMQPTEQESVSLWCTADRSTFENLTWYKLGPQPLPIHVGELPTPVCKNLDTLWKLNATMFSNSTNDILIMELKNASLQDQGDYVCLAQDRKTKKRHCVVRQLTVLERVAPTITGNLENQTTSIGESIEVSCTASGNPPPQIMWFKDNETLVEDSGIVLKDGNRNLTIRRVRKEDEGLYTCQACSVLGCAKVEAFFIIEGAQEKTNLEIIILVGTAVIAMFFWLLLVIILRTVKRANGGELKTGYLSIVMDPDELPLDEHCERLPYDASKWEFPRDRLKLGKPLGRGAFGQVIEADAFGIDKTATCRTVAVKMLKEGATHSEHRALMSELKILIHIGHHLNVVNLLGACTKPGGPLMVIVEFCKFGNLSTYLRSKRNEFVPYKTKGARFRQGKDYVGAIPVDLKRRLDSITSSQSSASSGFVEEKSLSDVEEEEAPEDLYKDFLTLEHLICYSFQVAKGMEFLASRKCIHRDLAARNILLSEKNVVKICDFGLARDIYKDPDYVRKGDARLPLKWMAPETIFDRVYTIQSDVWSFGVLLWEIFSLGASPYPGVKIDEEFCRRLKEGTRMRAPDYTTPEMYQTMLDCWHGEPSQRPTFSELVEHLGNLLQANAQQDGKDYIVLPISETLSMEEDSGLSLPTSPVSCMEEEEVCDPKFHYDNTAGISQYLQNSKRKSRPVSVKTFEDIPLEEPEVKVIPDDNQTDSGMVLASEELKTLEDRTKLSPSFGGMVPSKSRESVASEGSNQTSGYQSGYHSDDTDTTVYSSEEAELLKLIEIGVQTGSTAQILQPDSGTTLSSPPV

Syk = Syk (Homo sapiens, UniProt P43405); assay: AlphaScreen kinase assay, Syk; settings: read-out: IC50, activity toward kinase Syk
Description: AlphaScreen assay was used to screen additional kinases. The assay is similarly dependent on the phosphorylation of a peptide substrate. In this assay, an antibody that recognizes phosphorylated substrate is bound to an acceptor bead. The peptide substrate is attached to biotin, which binds to a donor head that contains streptavidin. Thus phosphorylated substrate is bound by antibody and streptavidin, bringing the donor and acceptor heads into close proximity when kinase is not inhibited. The donor produces singlet oxygen which results in emission from the acceptor when they are in close proximity. Conversely, when kinase is inhibited, the donor and acceptor beads are not associated and the emission from the acceptor is reduced.
AlphaScreen assays were done using compounds dissolved in DMSO to a concentration of 20 mM. The compounds were diluted accordingly to the desired final concentrations in each sample well, using 1:3 serial dilution for a total of 8 concentration points.

Btk = biological target: T6, Btk (Homo sapiens, UniProt Q06187); assay: Z'-Lyte FRET kinase assay (Invitrogen), Btk; settings: read-out: IC50, activity toward kinase Btk
T6 construct: purchased Invitrogen (assay run by Invitrogen)
T6 sequence (Q06187 whole entry): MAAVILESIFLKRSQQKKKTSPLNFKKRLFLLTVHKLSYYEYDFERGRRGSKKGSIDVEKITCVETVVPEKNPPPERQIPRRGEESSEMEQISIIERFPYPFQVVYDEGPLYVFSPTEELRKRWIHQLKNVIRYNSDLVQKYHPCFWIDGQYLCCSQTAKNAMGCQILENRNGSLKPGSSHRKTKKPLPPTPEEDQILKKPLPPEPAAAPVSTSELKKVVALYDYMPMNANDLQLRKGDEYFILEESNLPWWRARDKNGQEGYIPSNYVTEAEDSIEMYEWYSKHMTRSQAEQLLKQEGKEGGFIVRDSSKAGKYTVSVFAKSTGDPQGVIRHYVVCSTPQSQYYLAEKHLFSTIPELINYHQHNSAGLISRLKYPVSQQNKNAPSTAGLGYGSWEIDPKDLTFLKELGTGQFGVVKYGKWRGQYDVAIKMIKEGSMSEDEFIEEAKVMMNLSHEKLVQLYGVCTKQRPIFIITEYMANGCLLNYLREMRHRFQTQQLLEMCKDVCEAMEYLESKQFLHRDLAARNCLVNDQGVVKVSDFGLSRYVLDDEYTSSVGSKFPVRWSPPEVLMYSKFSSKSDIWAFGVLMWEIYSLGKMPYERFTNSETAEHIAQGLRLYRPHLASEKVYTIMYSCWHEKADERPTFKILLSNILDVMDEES

FGFR1 = biological target: T7, FGFR1 (Homo sapiens, UniProt P11362, C488A/C584S); assay: AlphaScreen kinase assay, FGFR1; settings: read-out: IC50, activity toward kinase FGFR
T7 construct: P1351.pET N6 BI-PTP FGFR A458-E765-X C488A, C584S; made in house; host or cells: E. coli (PTP1B co-expressed)
T7 sequence (P11362 458-765 C488A/C584S): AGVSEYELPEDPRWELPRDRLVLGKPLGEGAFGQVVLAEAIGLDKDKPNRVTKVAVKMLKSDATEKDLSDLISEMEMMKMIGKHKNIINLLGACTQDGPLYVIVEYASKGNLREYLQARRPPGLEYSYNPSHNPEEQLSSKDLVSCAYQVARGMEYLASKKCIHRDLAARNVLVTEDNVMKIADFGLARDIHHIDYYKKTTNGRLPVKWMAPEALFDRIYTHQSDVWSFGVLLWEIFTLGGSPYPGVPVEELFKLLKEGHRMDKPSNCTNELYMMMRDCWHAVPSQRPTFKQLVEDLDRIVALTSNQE

Abl = biological target: T8, Abl (Homo sapiens, UniProt P00519); assay: AlphaScreen kinase assay, Abl; settings: read-out: activity toward kinase Abl, IC50
T8 construct: P1121. pET-SPEC BI-PTP Abl G227-V515-X; His6 (N); made in house; host or cells: E. coli (PTP1B co-expressed)
T8 sequence (P00519 with tags, fused parts or gaps): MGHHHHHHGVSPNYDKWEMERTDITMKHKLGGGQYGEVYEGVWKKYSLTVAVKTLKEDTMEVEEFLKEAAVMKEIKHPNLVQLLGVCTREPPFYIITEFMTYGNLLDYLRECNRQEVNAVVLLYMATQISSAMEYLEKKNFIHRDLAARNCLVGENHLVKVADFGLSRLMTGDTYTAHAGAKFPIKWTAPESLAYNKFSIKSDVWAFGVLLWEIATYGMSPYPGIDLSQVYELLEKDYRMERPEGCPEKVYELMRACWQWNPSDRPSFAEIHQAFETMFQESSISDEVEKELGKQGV
Procedure, shortened: (§1)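 Here, phosphorylation of a biotin-tagged peptide was sensed by proximity of streptavidin donor and antibody-bearing acceptor beads. Test compounds covered 8 concentrations by 1:3 serial dilution of 20 mM DMSO stocks.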

Flt4 = biological target: T9, Flt4 (Homo sapiens, UniProt P35916); assay: AlphaScreen kinase assay, Flt4; settings: read-out: IC50, activity toward kinase Flt4
T9 construct: purchased ProQinase GmbH (Freiburg, Germany)
Procedure, shortened: as §1

Jnk1 = biological target: T10, Jnk1 (Homo sapiens, UniProt P45983); assay: AlphaScreen kinase assay, Jnk1; settings: read-out: IC50, activity toward kinase Jnk1
T10 construct: purchased Upstate Biotechnology

B-Raf = biological target: T11, B-Raf (Homo sapiens, UniProt P15056); assay: AlphaScreen kinase assay, B-Raf; settings: read-out: IC50, activity toward kinase B-Raf
T11 construct: purchased Upstate Biotechnology
T11 sequence (P15056 whole entry): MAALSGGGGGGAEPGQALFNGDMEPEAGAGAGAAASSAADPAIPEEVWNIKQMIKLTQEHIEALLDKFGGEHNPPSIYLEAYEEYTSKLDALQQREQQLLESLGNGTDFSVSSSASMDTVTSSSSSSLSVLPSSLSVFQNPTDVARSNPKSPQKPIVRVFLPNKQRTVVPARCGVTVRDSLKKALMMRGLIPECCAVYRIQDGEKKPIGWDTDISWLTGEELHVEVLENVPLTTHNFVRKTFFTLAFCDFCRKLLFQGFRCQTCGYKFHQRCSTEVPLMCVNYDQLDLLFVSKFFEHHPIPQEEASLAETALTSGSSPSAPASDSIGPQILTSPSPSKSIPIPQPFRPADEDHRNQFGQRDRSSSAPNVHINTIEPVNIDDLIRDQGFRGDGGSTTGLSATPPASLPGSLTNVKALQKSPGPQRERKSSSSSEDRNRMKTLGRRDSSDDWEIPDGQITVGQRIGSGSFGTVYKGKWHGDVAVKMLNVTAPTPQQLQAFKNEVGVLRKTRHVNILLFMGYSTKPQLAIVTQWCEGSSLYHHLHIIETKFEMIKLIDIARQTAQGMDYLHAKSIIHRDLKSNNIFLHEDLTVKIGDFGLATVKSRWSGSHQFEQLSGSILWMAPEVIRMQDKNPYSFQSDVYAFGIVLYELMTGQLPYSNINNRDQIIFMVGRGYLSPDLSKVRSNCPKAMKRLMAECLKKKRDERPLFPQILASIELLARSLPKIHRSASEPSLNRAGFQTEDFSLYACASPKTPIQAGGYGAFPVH

Jnk2 = biological target: T12, Jnk2 (Homo sapiens, UniProt P45984); assay: AlphaScreen kinase assay, Jnk2; settings: read-out: IC50, activity toward kinase Jnk2
T12 construct: purchased Roche Protein Expression Group (Indianapolis, IN)
Procedure, shortened: as §1

Kit = biological target: T13, Kit (Homo sapiens, UniProt P10721); assay: AlphaScreen kinase assay, Kit; settings: read-out: IC50, activity toward kinase Kit
T13 construct: P1332.N6 BI PTP KIT M552-K948-X COD; His6 (N); made in house; host or cells: E. coli (PTP1B co-expressed)

Flt1 = biological target: T14, Flt1 (Homo sapiens, UniProt P17948); assay: AlphaScreen kinase assay, Flt1; settings: read-out: IC50, activity toward kinase Flt1
T14 construct: P1826.pETN6 BI-PTP FLT1 M799-D1165-X WT; His6 (N); made in house; host or cells: E. coli (PTP1B co-expressed)
T14 sequence (P17948 with tags, fused parts or gaps): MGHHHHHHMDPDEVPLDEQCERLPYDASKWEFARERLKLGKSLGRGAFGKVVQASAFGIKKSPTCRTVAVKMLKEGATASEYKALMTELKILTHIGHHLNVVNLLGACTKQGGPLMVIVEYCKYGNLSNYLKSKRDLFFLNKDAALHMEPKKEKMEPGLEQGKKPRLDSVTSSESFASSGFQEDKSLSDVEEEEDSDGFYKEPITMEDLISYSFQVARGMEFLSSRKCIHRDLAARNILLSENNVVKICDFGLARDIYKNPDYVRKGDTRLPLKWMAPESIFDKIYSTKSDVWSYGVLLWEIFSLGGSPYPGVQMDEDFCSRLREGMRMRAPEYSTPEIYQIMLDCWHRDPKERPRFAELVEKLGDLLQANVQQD

Src = biological target: T15, Src (Homo sapiens, UniProt P12931); assay: AlphaScreen kinase assay, Src; settings: read-out: IC50, activity toward kinase Src
T15 construct: P1144. pET-N6 BI-PTP SRC V86-L536-X; made in house
T15 sequence (P12931 with tags, fused parts or gaps): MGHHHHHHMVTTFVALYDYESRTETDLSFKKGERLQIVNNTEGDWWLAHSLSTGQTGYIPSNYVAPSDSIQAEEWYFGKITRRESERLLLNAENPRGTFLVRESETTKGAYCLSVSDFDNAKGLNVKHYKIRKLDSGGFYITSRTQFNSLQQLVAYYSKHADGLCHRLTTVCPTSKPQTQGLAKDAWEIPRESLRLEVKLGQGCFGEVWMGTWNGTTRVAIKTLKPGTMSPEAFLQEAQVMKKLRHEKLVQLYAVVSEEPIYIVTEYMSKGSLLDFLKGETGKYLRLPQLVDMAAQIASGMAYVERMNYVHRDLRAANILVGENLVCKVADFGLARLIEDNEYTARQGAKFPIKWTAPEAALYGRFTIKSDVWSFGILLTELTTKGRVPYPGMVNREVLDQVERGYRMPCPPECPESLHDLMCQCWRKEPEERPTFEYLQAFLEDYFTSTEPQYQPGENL

T1 sequence (P49137 whole entry): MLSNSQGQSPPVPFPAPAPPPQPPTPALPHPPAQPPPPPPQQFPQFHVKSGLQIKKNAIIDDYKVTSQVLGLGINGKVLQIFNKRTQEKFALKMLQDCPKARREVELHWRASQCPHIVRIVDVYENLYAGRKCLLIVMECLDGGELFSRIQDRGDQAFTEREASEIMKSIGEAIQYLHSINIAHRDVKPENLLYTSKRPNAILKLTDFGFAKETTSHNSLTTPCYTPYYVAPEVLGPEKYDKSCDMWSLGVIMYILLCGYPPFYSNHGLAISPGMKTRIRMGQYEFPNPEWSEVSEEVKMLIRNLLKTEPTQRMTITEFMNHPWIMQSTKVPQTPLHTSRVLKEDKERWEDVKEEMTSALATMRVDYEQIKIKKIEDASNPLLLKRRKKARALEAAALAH

IC50 (MAPKAPK2) [µM]	IC50 (B-Raf V600E) [µM]	IC50 (Ret) [µM]	IC50 (Jnk3) [µM]	IC50 (Kdr) [µM]	IC50 (Syk) [µM]	IC50 (Btk) [µM]	IC50 (FGFR1) [µM]	IC50 (Abl) [µM]	IC50 (Flt4) [µM]	IC50 (Jnk1) [µM]	IC50 (B-Raf) [µM]	IC50 (Jnk2) [µM]	IC50 (Kit) [µM]	IC50 (Flt1) [µM]	IC50 (Src) [µM]	SMILES
≤ 10	–	–	–	–	–	–	–	–	–	–	–	–	–	–	–	COc1cccc(C(=O)c2c[nH]c3ncc(-c4ccc[nH]4)cc23)c1 [Compound P-0151]
–	≤ 10	≤ 10	≤ 10	≤ 10	≤ 10	≤ 10	≤ 10	–	–	–	–	–	–	–	–	O=C(O)/C=C/c1cccc(-c2cnc3[nH]cc(C(=O)c4cccc(Cl)c4Cl)c3c2)c1 [Compound P-0089]
–	≤ 10	≤ 10	≤ 10	≤ 10	≤ 10	–	≤ 10	≤ 10	≤ 10	≤ 10	≤ 10	≤ 10	≤ 10	≤ 10	≤ 10	O=C(c1cccc(O)c1)c1c[nH]c2ncc(-c3ccsc3)cc12 [Compound P-0448]
